This note sets out measurements from US10369133B2, “Immunosuppressive compounds and therapeutics” (UNIVERSITY OF TENNESSEE RESEARCH FOUNDATION, priority 2013, dated 2019).

One data set has as its system NF-κB. Briefly: NF-κB SEAP reporter gene assay in INS-1E cells. To be noted: for NF-κB activities in INS-1E cells: printed "at 504" (FIG. 2B: 5 μM), cytokine cocktail 10 ng/mL TNFα, 5 ng/mL IL-1β, 10 ng/mL IFN-γ, 24 hours. The class given is cell-based, rat. The method, then: Briefly, a plasmid construct containing NF-kB promoter and SEAP gene was transferred into INS-1E cells by lipofectamine. SEAP was then expressed and secreted into culture supernatant and allowed […] detection using a substrate PNPP under 405 nm. […] NF-kB activity was measured 24 hours after addition of cytokine cocktail (10 ng/mL TNFα, 5 ng/mL IL-1β and 10 ng/mL IFN-γ) alone or with JP-3-110 (5 μM) or TNP (5 μM) or MPA (5 μM). Blank, no cytokine stimulation. Cyt, cytokine cocktail. Results are presented as the mean±S.D., n=3.
INS-1E cells which were stably transfected with the SEAP gene containing the response-element for NF-κB were used to screen for anti-inflammatory activity. Briefly, 10^6 cells/well were seeded overnight followed by treatment with 10 ng/mL human recombinant TNFα and either TNP or hybrid drug JP-3-110 (1 μM). SEAP activity was measured 18 h later in supernatant samples (50 µL) using the NF-κB SEAPorter™ Assay Kit (IMGENEX, San Diego, Calif.) and a microplate luminometer. SEAP activity was normalized to the total protein content.
(In a reporter assay the amount or activity of a reporter protein is the signal.)

Another data set concerns human islets. Briefly: Annexin V-FITC flow cytometry of apoptotic cells in human islets. The format is cell-based. To be noted: 20 μM, 5 days coculture. How it is done:
(§1) Results are presented as the mean±S.D., n=3. […] Apoptotic cells were stained in dark (arrows). […] Islet was collected and dispersed with 0.25% Trypsin/EDTA into single cell suspension. P3 indicated the percentage of apoptotic cells. All experiments were performed in triplicates. Results are presented as the mean±SD. *p<0.05 as determined by an unpaired Student's t-test, n=6.
(§2) The apoptosis of INS-1E cells was analyzed using terminal deoxynucleotidyl transferase dUTP nick end labeling (TUNEL). Briefly, following JP-3-110 treatment for 48 h and cytokine cocktail treatment for additional 48 h, INS-1E cells were characterized by the DeadEnd™ Colorimetric TUNEL system (Promega, Madison, Wis., USA), in which fragmented DNA from apoptotic cells was labeled with biotinylated nucleotide and detected using hydrogen peroxide and diaminobenzidine. For human islets, following treatment with JP-3-110 and cytokines, human islets were digested with 0.25% trypsin/EDTA into a single-cell suspension, stained with the Annexin V-FITC Apoptosis Detection Kit (Abcam, Cambridge, Mass.) and analyzed with flow cytometry. Annexin V binds to phosphatidylserine on the cell surface, which is a feature found in apoptotic cells. Fluorescent intensity was analyzed using CellQuest software (BD Bioscience, Franklin Lakes, N.J.). […]
(§3) We then determined the conjugation with TNP can reduce the pro-apoptotic effect of MPA. […]

In the next data set the test system is human PBMCs in NSG mice. Kind of data set: Immunosuppressive effect in humanized NSG mice. The format is in vivo, mouse. To be noted: for amount of human CD3+ T cells in the mouse spleen / serum human IgG level: 50 mg/kg intraperitoneally, consecutive 7 shots, compared with saline. The method, then:
Human PBMCs (5×10^6/mouse) were injected intraperitoneally into NSG mice to introduce human immunity. Sections were stained to indicate human CD3+ T cells (red) and counterstained with DAPI (blue). […] Results are presented as the mean±S.D., n=5.
Human PBMCs were isolated from buffy coats by gradient centrifugation using Ficoll Paque. The T cells and B cells of PBMCs were stained with FITC conjugated CD3 antibody and APC conjugated CD19 antibody, respectively, and characterized using flow cytometry. The PBMCs were infused into diabetic NSG mice at the concentration of 5×10^6/mouse to establish human immunity. The settlement of T cells in the spleen was assessed by immunofluorescence staining. Briefly, spleen were isolated, washed with PBS, fixed in 4% paraformaldehyde overnight, and embedded in optimal cutting temperature compound. Frozen sections of 5 μm thickness were cut. The slides were stained with rabbit anti-human CD3 primary antibody (1:200) at 4° C. overnight and Alexa Fluor 568 conjugated goat anti-rabbit secondary antibody (1:500) at room temperature for 1 h. The function of B cells was assessed by measuring human IgG concentration in the mouse blood.
To test the immunosuppressive effect of JP-3-110 in vivo, a humanized mouse model was used. Briefly, human PBMCs (5×10^6/mouse) were adoptively transferred into immunodeficient NSG mice to build human immunity. The human IgG level in the serum and human CD3+ T cell staining in the spleen was used to confirm the existence of human immunity (FIG. 8B). JP-3-110 and MPA was administrated intraperitoneally at 50 mg/kg for consecutive 7 shots.

The subject of data set [1] is INS-1E cells. Briefly: Caspase 3 activity in INS-1E cells (Caspase-Glo 3). The format is cell-based. To be noted: 20 μM (each), 2 days. How it is done:
as §1
A cytokine cocktail (5 ng/ml TNFα and 5 ng/ml IL-1β) was used to mimic the in vivo challenge to the INS-1E cells and human islets by the inflammatory cytokines. Caspase-Glo 3 assay kits were used to analyze caspase 3 as per the manufacturer's protocol (Promega, Madison, Wis.). This assay kit provides a proilluminescent caspase substrate, DEVD, that, when cleaved by caspases, will release luciferin to quantitatively determine caspase concentration. […] The contents were then transferred into culture tubes, and luminescence was determined using a luminometer (Berthold, Germany).
We then determined the conjugation with TNP can reduce the pro-apoptotic effect of MPA. […] We first measured the caspase 3 activities of insulin-producing INS-1E cells under the stimulation of MPA alone, or MPA with free TNP, or JP-3-110 (MPA conjugated with TNP). […]

For data set [2], the system named is INS-1E cells. Kind of data set: TUNEL assay of INS-1E cells. To be noted: 20 μM. The format is cell-based. The method, then: as §1, §2, §3

Consider `CCCCNC(=O)[C@]1(O)C[C@@H](O)[C@@H](O)[C@H](OC(=O)CC/C(C)=C/Cc2c(OC)c(C)c3c(c2OC(C)=O)C(=O)OC3)C1` [JP-3-110, (1R,2R,3R,5S)-5-(butylcarbamoyl)-2,3,5-trihydroxycyclohexyl (E)-6-(4-acetoxy-6-methoxy-7-methyl-3-oxo-1,3-dihydroisobenzofuran-5-yl)-4-methylhex-4-enoate], for which, in the data set with NF-κB (MPA, TNP and JP-3-110 compared, cytokine cocktail), the “reduction in NF-κB activities compared among the three groups” value is recorded as “most reduction”. The “NF-κB activities in INS-1E cells” value in the data set with NF-κB is on record as “significantly reduced”. Moreover, in the data set on human islets, the “apoptotic cells in human islets (annexin V)” value is “significantly reduced the percentage of apoptotic cells”. Also, in the data set on human PBMCs in NSG mice, the “amount of human CD3+ T cells in the mouse spleen” value is recorded as “significantly reduced” and the “serum human IgG level” value is “significantly reduced”. In addition, in the data set on INS-1E cells [1], the “caspase 3 activity” value was “effectively reversed the elevation of caspase 3 activity”. Also, in the data set with INS-1E cells [2], the “apoptotic cell death (TUNEL)” value was “effectively reversed”.
For `COc1c(C)c2c(c(O)c1C/C=C(\C)CCC(=O)O)C(=O)OC2` [MPA, mycophenolic acid, reference compound], the “NF-κB activities in INS-1E cells” value in the data set with NF-κB was “significantly reduced”. Besides, in the data set on human islets, the “apoptotic cells in human islets (annexin V)” value was “induced substantial apoptotic cell death”. In the data set with human PBMCs in NSG mice, the “amount of human CD3+ T cells in the mouse spleen” value is on record as “significantly reduced” and the “serum human IgG level” value is on record as “significantly reduced”. Moreover, in the data set on human PBMCs in NSG mice (humanized NSG mice, 50 mg/kg each), the “immunosuppressive effect, MPA compared with JP-3-110” value was “slightly better immunosuppressive effect than JP-3-110”. In addition, the “caspase 3 activity” value with INS-1E cells [1] is recorded as “elevation of caspase 3 activity”. The “apoptotic cell death (TUNEL)” value in the data set on INS-1E cells [2] is recorded as “apoptotic cell death”.
